Residues, ends and D or L forms follow the SMILES beside them.
Legend:
PIK3R1-N SH2 domain = biological target: T1, PIK3R1-N SH2 domain (Homo sapiens, UniProt P27986); assay: biochemical; assay type: binding; conditions: protein PIK3R1-N; FP, high-confidence ErbB interactions; mean of replicate hits
T1 construct: thioredoxin; made in house; host or cells: E. coli BL21(DE3)pLysS

PIK3R3-C SH2 domain = biological target: T2, PIK3R3-C SH2 domain (Homo sapiens, UniProt Q92569); assay: biochemical; assay type: binding; conditions: protein PIK3R3-C; FP, high-confidence ErbB interactions; mean of replicate hits
T2 construct: thioredoxin; made in house; host or cells: E. coli BL21(DE3)pLysS

[1] = biological target: T3, PIK3R3-NC tandem SH2 domains (Homo sapiens, UniProt Q92569); assay: FP saturation binding assay; conditions: protein PIK3R3-NC; FP, high-confidence ErbB interactions; mean of replicate hits
T3 construct: the tandem protein was included in our analysis with all internal amino acids linking the domains; 6X His; thioredoxin; made in house; host or cells: E. coli BL21(DE3)pLysS
In short: (§1)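 KD values come from least-squares fits of fluorescence polarization (ex 530, em 555 nm), corrected for thioredoxin nonspecific binding and plate baseline, with outliers pruned. Fixed 10 nM labeled peptide met a 0.002–10 µM protein series for 20 min at room temperature in HEPES/KCl/Tween/DTT buffer, pH 7.8.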

PIK3R1-C SH2 domain = biological target: T4, PIK3R1-C SH2 domain (Homo sapiens, UniProt P27986); assay: FP saturation binding assay; conditions: protein PIK3R1-C, high-confidence ErbB interactions, mean of replicate hits
T4 construct: 6X His; thioredoxin; made in house; host or cells: E. coli BL21(DE3)pLysS
In short: as §1

PIK3R3-N SH2 domain = biological target: T5, PIK3R3-N SH2 domain (Homo sapiens, UniProt Q92569); assay: FP saturation binding assay; conditions: protein PIK3R3-N; FP, high-confidence ErbB interactions; mean of replicate hits
T5 construct: 6X His; thioredoxin; made in house; host or cells: E. coli BL21(DE3)pLysS
In short: as §1

PIK3R2-N SH2 domain = PIK3R2-N SH2 domain (Homo sapiens, UniProt O00459); assay: FP saturation binding assay
[2] = biological target: T6, PIK3R1-NC tandem SH2 domains (Homo sapiens, UniProt P27986); assay: FP saturation binding assay; conditions: protein PIK3R1-NC; FP, high-confidence ErbB interactions; mean of replicate hits
T6 construct: the tandem protein was included in our analysis with all internal amino acids linking the domains; 6X His; thioredoxin; made in house; host or cells: E. coli BL21(DE3)pLysS
In short: as §1

RASA1-N SH2 domain = biological target: T7, RASA1-N SH2 domain (Homo sapiens, UniProt P20936); assay: FP saturation binding assay
T7 sequence (P20936 181-272 limits assumed): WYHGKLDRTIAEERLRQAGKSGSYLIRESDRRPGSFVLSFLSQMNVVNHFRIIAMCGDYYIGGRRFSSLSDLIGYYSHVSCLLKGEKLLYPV

GRB7 SH2 domain = GRB7 SH2 domain (Homo sapiens, UniProt Q14451); assay: FP saturation binding assay; conditions: Mean KD (μM), protein GRB7; FP, high-confidence ErbB interactions; mean of replicate hits
PLCG1-C SH2 domain = biological target: T8, PLCG1-C SH2 domain (Homo sapiens, UniProt P19174); assay: biochemical; assay type: binding; conditions: protein PLCG1-C; high-confidence ErbB interactions; mean of replicate hits
T8 construct: The 6X His-tagged SH2 domain proteins used in the assay, PLCG1-C, SHC4, VAV2; thioredoxin; made in house; host or cells: E. coli BL21(DE3)pLysS
T8 sequence (P19174 668-756 limits assumed): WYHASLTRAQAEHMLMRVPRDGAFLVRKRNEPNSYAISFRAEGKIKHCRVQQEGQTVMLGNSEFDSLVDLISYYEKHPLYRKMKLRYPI

PTK6 SH2 domain = biological target: T9, PTK6 SH2 domain (Homo sapiens, UniProt Q13882); assay: FP saturation binding assay; conditions: protein PTK6; high-confidence ErbB interactions; mean of replicate hits
T9 construct: from the PTK6 SH2 domain; 6X His; thioredoxin; made in house; host or cells: E. coli BL21(DE3)pLysS
In short: as §1

YES1 SH2 domain = biological target: T10, YES1 SH2 domain (Homo sapiens, UniProt P07947); assay: FP saturation binding assay; conditions: protein YES1; high-confidence ErbB interactions; mean of replicate hits
T10 construct: 6X His; thioredoxin; made in house; host or cells: BL21(DE3)pLysS E. coli
In short: as §1

[3] = biological target: PIK3R2-NC tandem SH2 domains (Homo sapiens, UniProt O00459); assay: FP saturation binding assay
TNS3 SH2 domain = biological target: T11, TNS3 SH2 domain (Homo sapiens, UniProt Q68CZ2); assay: FP saturation binding assay; conditions: FP saturation assay; Tensin family SH2 domains
T11 sequence (Q68CZ2 1172-1282 limits assumed): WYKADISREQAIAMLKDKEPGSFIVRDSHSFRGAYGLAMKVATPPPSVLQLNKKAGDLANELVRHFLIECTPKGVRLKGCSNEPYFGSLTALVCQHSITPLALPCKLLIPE

TNS1 SH2 domain = biological target: T12, TNS1 SH2 domain (Homo sapiens, UniProt Q9HBL0); assay: FP saturation binding assay; conditions: Tensin family SH2 domains
T12 sequence (Q9HBL0 1567-1676 limits assumed): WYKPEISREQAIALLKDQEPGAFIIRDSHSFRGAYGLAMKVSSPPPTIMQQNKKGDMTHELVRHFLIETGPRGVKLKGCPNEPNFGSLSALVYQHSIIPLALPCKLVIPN

TENC1 SH2 domain = assay: FP saturation binding assay; conditions: Tensin family SH2 domains

T1 sequence (P27986 333-428 limits assumed): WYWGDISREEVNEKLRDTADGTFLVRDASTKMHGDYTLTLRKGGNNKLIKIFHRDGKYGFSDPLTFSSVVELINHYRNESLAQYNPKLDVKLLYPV
T6 sequence (P27986 333-718 limits assumed): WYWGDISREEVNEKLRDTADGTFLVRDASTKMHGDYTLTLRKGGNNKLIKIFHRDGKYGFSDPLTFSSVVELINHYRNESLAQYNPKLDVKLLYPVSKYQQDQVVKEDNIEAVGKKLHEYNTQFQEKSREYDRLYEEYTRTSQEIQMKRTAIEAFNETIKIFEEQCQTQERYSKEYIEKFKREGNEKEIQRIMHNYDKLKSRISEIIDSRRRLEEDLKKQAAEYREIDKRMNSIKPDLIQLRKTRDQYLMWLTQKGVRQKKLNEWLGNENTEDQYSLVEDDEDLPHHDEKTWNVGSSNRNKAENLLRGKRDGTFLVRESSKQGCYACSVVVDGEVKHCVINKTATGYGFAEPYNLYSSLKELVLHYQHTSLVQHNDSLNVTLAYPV
T4 sequence (P27986 624-718 limits assumed): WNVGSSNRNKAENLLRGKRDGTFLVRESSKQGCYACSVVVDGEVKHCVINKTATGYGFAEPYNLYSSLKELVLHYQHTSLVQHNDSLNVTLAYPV
GRB7 SH2 domain, sequence (Q14451 431-527 limits assumed): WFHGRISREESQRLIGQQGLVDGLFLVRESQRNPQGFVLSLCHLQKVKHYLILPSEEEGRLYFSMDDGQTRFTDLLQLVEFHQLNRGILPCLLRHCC
T9 sequence (Q13882 78-170 limits assumed): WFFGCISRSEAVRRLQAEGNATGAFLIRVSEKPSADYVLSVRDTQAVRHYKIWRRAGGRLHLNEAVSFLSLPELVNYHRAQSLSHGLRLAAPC
PIK3R2-N SH2 domain, sequence (O00459 330-425 limits assumed): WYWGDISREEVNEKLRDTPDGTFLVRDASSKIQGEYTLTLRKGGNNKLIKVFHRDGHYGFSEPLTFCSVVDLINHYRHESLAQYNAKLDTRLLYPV
T10 sequence (P07947 158-255 limits assumed): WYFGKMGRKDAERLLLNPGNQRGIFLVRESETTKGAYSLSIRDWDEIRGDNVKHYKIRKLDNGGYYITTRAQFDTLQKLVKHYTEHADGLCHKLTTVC
PIK3R2-NC tandem SH2 domains, sequence (O00459 330-716 limits assumed): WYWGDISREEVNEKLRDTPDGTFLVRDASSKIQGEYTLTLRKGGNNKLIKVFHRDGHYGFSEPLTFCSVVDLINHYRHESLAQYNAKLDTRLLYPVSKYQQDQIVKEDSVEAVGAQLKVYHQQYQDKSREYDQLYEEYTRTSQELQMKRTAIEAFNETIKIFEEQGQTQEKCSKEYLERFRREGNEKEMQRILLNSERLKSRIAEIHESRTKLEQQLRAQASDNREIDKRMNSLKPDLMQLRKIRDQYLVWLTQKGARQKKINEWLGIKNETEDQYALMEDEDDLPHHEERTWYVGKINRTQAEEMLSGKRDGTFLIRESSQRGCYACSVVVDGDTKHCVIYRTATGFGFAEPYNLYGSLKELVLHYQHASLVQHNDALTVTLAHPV

affinity of recruitment of TNS3 (TNS3 SH2 domain)	affinity of recruitment of TNS1 (TNS1 SH2 domain)	affinity of recruitment of TENC1 (TENC1 SH2 domain)	Compound	Kd (PIK3R1-N SH2 domain) [nM]	Kd (PIK3R3-C SH2 domain) [nM]	Kd [1] [nM]	Kd (PIK3R1-C SH2 domain) [nM]	Kd (PIK3R3-N SH2 domain) [nM]	Kd (PIK3R2-N SH2 domain) [nM]	Kd [2] [nM]	Kd (RASA1-N SH2 domain) [nM]	Kd (GRB7 SH2 domain) [µM]	Kd (PLCG1-C SH2 domain) [nM]	Kd (PTK6 SH2 domain) [nM]	Kd (YES1 SH2 domain) [nM]	Kd [3] [nM]
–	–	–	CSCC[C@H](NC(=O)[C@H](C)NC(=O)[C@H](C)NC(=O)[C@H](Cc1ccc(OP(=O)(O)O)cc1)NC(=O)[C@H](CC(=O)O)NC(=O)CNC(=O)CNC(=O)[C@@H]1CCCN1)C(=O)NCC(=O)N[C@@H](C)C(=O)N[C@@H](CS)C(=O)N1CCC[C@H]1C(=O)N[C@@H](CC(=O)O)C(=O)O [ErbB3 1276 13-mer] (HELM PEPTIDE1{P.G.G.D.[O=C([C@H](Cc1ccc(OP(=O)(O)O)cc1)N[*:1])[*:2]].A.A.M.G.A.C.P.D}$$$$V2.0)	6000	9860	3710	2300	2460	–	–	–	–	–	–	–	–
–	–	–	CSCC[C@H](NC(=O)[C@@H]1CCCN1C(=O)[C@@H](NC(=O)[C@H](Cc1ccc(OP(=O)(O)O)cc1)NC(=O)[C@H](C)NC(=O)[C@@H]1CCCN1C(=O)[C@@H]1CCCN1C(=O)[C@@H]1CCCN1)[C@@H](C)O)C(=O)N[C@@H](CO)C(=O)NCC(=O)N[C@@H](CC(N)=O)C(=O)N[C@@H](CCC(N)=O)C(=O)N[C@@H](CC(=O)O)C(=O)O [ErbB4 1056 13-mer] (HELM PEPTIDE1{P.P.P.A.[O=C([C@H](Cc1ccc(OP(=O)(O)O)cc1)N[*:1])[*:2]].T.P.M.S.G.N.Q.D}$$$$V2.0)	2570	–	230	160	–	2960	210	–	–	–	–	–	–
–	–	–	CC(C)C[C@H](NC(=O)[C@H](Cc1ccc(O)cc1)NC(=O)[C@H](CC(C)C)NC(=O)[C@@H]1CCCN1C(=O)[C@H](CCC(=O)O)NC(=O)[C@H](CC(N)=O)NC(=O)[C@@H](NC(=O)[C@H](Cc1ccc(OP(=O)(O)O)cc1)NC(=O)[C@H](CCC(=O)O)NC(=O)[C@H](CC(=O)O)NC(=O)[C@H](CCC(=O)O)NC(=O)[C@H](C)N)C(C)C)C(=O)N[C@@H](CC(=O)O)C(=O)O [ErbB4 1202 13-mer] (HELM PEPTIDE1{A.E.D.E.[O=C([C@H](Cc1ccc(OP(=O)(O)O)cc1)N[*:1])[*:2]].V.N.E.P.L.Y.L.D}$$$$V2.0)	1350	–	2860	–	1860	–	1540	1460	2.06	1550	1190	1610	4970
relatively high affinity	relatively high affinity	relatively high affinity	LDEApYVMASVDNd [ErbB1 pY764]	–	–	–	–	–	–	–	–	–	–	–	–	–

Reference: paper PMC3433420 (PLoS ONE, 2012)
